Where two headings read alike, the source gives them in different places.
Tests used:
EA.hy926 cells = assay: Tube-Formation Assay; type: cell-based; conditions: 24 hr pre-treatment, 48-hr incubation on matrigel; FIG. 4
Procedure: Angiogenesis is the process of generating new blood vessels derived as extensions from the existing vasculature. Performance of vascular behavior or monitoring tube formation can determine whether the compound is capable of interrupting angiogenesis. In this example, whether the compound of formula (I) interrupted angiogenesis was investigated using Tube-Formation Assay.
Briefly, EA.hy926 cells were treated with various concentrations of BO-2590 for 24 hr. After that, cells (5×10^5 cells/well) were suspended in 100 μl medium containing 1% FCS and subsequently seeded onto 96-well plate pre-coated with matrigel 1 h at 37° C. After a 48-hr incubation, tube-formation ability was examined under a phase microscope.

CD31 = assay: immunohistochemical staining of tumor xenograft sections, blood vessels; type: in vivo, nude mice; conditions: for blood vessel in tumors (anti-CD31 staining): compared to vehicle control, FIG. 15, panel A; for CD31 marker intensity compared to control: day 9, H526 tumors, FIG. 15, panel B
Procedure: (§1) Tumor xenograft tissue sections on the slides were deparaffinized in xylene twice for 7 min each time. The slides were then rehydrated in graded ethanol, serially from 100% to 70%, followed by rinsing in dH2O. Antigen retrieval was performed using citrate buffer (0.01M, pH 6.0) with incubation in a cooker for 50 mins followed by ambient temperature cooling for 30 min. and then dH2O rinsing. Later slides were subjected to immunohistochemical (IHC) staining with primary antibodies (anti-rabbit CD31 antibody and anti-mouse γ-H2AX antibody) obtained from Abeam® following the manufacturer's instructions (Novolink Polymer Detection system, Leica Biosystems, Wetzlar, Germany).^11 After IHC processing, the slides were scanned digitally using the Panoramic 250 Flash II whole slide scanner and analyzed by 3DHISTECH Panoramic viewer software (3DHISTECH Ltd., Budapest, Hungary).
The density of blood vessels within the tumors was evaluated by immunofluorescence staining using anti-CD31 (a marker of endothelial cells) (FIG. 15, panel A). […] After IHC, slides were scanned by Panoramic 250 Flash II whole slide scanner. The expression of CD31 in tissue sections were determined from 15 different fields of 3 tumor sections and counts were averaged using 3DHISTECH Panoramic viewer software (3DHISTECH Ltd., Budapest, Hungary). […] However, on day 9, CD31 marker intensity was reduced to 4% in tumors treated with BO-2590L or vatalanib compared to control (FIG. 15, panel B). […] On day 9, CD31 marker intensity in cisplatin-treated tumor was 19% of control, which was less extent than BO-2590L or vatalanib.

γ-H2AX = assay: immunohistochemical staining of tumor xenograft sections, DNA damage marker; type: in vivo, nude mice; conditions: for γ-H2AX in tumors: FIG. 16, panel A; for γ-H2AX signals, quantitative analysis: FIG. 16, panel B
Procedure: as §1, with “3[…]” for “3DHISTECH”, “(3[…]” for “(3DHISTECH”
As BO-2590L is a DNA damaging agent, we thus investigated the effect of BO-2590L on the level of a DNA damage marker, γ-H2AX, via the use of immunohistochemical staining.

[1] = test system: human lymphoblastic leukemia cell line (CCRF-CEM); assay: in vitro cytotoxicity, PrestoBlue assay; type: cell-based; conditions: 72-hr incubation, mean ± STDEV of three to six experiments, read-out: IC50 CCRF-CEM
Procedure: (§2) All representative compounds of Formulae (I-A) and (I-B) were first evaluated for their in vitro cytotoxicity to human lymphoblastic leukemia cell line (CCRF-CEM) and its vinblastine-resistant sub-cell line (CCRF-CEM/VBL) (see Table 1).
(§3) After a 72-hr incubation in various concentrations of the newly synthesized compounds, the cytotoxic effects of them to all cell lines were determined by the PrestoBlue®(Invitrogen) assay using a microplate spectrophotometer. Briefly, at the end of treatment, an aliquot of PrestoBlue® solution was added and then cells were incubated at 37° C. for 1-2 hr. The absorbance at 570 and 600 nm was measured with a microplate reader. […] The ICso is defined by the concentration required to inhibit tumor cell growth by 50%. Data represent the mean±STDEV of three to six independent experiments for each compound.

colon cancer HCT-116 = assay: in vitro cytotoxicity, PrestoBlue assay; type: cell-based, human; conditions: Table 2
Procedure: as §2, §3

[2] = test system: non-small cell lung cancer H460; assay: in vitro cytotoxicity, PrestoBlue assay; type: cell-based, human; conditions: Table 2
Procedure: as §2, §3

pancreatic cancer PacaS1 = assay: in vitro cytotoxicity, PrestoBlue assay; type: cell-based, human; conditions: Table 2
Procedure: as §2, §3

[3] = test system: vinblastine-resistant sub-cell line (CCRF-CEM/VBL); assay: in vitro cytotoxicity, PrestoBlue assay; type: cell-based, human; conditions: for IC50: 72-hr incubation, mean ± STDEV of three to six experiments, read-out: IC50 CEM/VBL; for resistance factor (IC50 CEM/VBL vs IC50 of the parent cell line): number in brackets
Procedure: as §2, §3

[4] = test system: small cell lung cancer H526; assay: in vitro cytotoxicity, PrestoBlue assay; type: cell-based, human; conditions: read-out: IC50 H526
H1417 = assay: in vitro cytotoxicity to SCLC cells; type: cell-based, human; conditions: Table 3
Procedure: as §3

H146 = assay: in vitro cytotoxicity to SCLC cells; type: cell-based, human; conditions: Table 3
Procedure: as §3

H211 = assay: in vitro cytotoxicity to SCLC cells; type: cell-based, human; conditions: Table 3
Procedure: as §3

H82 = assay: in vitro cytotoxicity to SCLC cells; type: cell-based, human; conditions: Table 3
Procedure: as §3

H526 cells = assay: single cell electrophoresis (comet) assay; type: cell-based; conditions: FIG. 2
Source text: The data is the average of 3 independent experiments.
To this purpose, cells were encapsulating in a low-melting-point agarose suspension on a microscope slide, then were lysed in neutral or alkaline (pH>13) condition, and electrophoresis of the suspended lysed cells. The term “comet” refers to the pattern of DNA migration through the electrophoresis gel, which often resembles a comet, and the intensity of the comet tail relative to the head reflects the number of DNA breaks.

[5] = test system: human SCLC H526 xenografts; assay: tumor growth in xenograft-bearing nude mice; type: in vivo; conditions: micelle formulation (Kolliphor/TWEEN 80/PEG400/ethanol/D5W); BO-2768 at 20 mg/kg twice daily; FIG. 12, panel A
Procedure: Athymic nude mice bearing the nu/nu gene were obtained from the National Laboratory Animal Center (Taipei, Taiwan). Male nude mice (6 weeks or older weighing 20-24 g or more) were used for all human tumor xenografts. The tested compounds were intravenously administered through tail vein. Tumor volume was determined by measuring the length x width x height (or width) with calipers. […] For tumor-bearing nude mice during the course of the experiment, the % body weight changes refer to: (the total weight on reading day/the total weight on day treatment started)×100.
In all experiments, the tumor cells were subcutaneously implanted in nude mice, and the BO-2590L was administered via tail vein when the tumor size reaching approximate 100 mm^3. […]
To confirm the therapeutic activity of BO-2590L, comparative experiments carried out by known chemotherapeutic agents, such as vatanalib and cisplatin, were also performed. Briefly, the H526 xenograft-bearing mice were divided into 4 groups which were treated with vehicle, BO-2590L (10 mg/kg, QD×9), vatalanib (100 mg/kg, QD×9), and cisplatin (4 mg/kg, Q2D×3), respectively. Results are illustrated in FIG. 11.
Results are illustrated in FIGS. 12 and 13.

[6] = body weight changes of xenograft-bearing nude mice; type: in vivo; conditions: H526 xenograft mice
Procedure: Athymic nude mice bearing the nu/nu gene were obtained from the National Laboratory Animal Center (Taipei, Taiwan). Male nude mice (6 weeks or older weighing 20-24 g or more) were used for all human tumor xenografts. The tested compounds were intravenously administered through tail vein. Tumor volume was determined by measuring the length x width x height (or width) with calipers. The vehicle used for the tested compounds was normal saline (0.9% NaCl isotonic solution). For tumor-bearing nude mice during the course of the experiment, the % body weight changes refer to: (the total weight on reading day/the total weight on day treatment started)×100.

pEGFP-N1 plasmid DNA = assay: DNA cross-linking, alkaline agarose gel electrophoresis; type: biochemical; conditions: 1-20 μM, 37° C., 2 hrs; FIG. 1
Procedure: In the present example, BO-2590, BO-2577 (Formula I-A) and BO-2698, BO-2755, BO-2762 and BO-2768 (Formula I-B) were tested for their DNA crosslinking activity, in which the cross-linking was analyzed by alkaline agarose gel electrophoresis. In brief, purified pEGFP-N1 plasmid DNA (1,500 ng) was mixed with various concentrations (1-20 μM) of the tested compounds in 40 μL binding buffer (3 mM sodium chloride/1 mM sodium phosphate, pH 7.4, and 1 mM EDTA). The reaction mixture was incubated at 37° C. for 2 hrs. At the end of reaction, the plasmid DNA was linearized by digestion with BamHI and followed by precipitation with ethanol. The DNA pellets were dissolved and denatured in alkaline buffer (0.5 N NaOH-10mM EDTA). An aliquot of 20 μL of DNA solution (1,000 ng) was mixed with 4 μL of 6× alkaline loading dye and then electrophoretically resolved on a 0.8% alkaline agarose gel with NaOH-EDTA buffer at 4° C. The electrophoresis was carried out at 18V for 22 h. After staining the gels with an ethidium bromide solution, the DNA was visualized under UV light. Results are illustrated in FIG. 1.

VEGFR-2 = biological target: T1, VEGFR-2 (Homo sapiens, UniProt P35968); assay: VEGFR-2 activation, western blotting in EA.hy926 cells; type: cell-based; conditions: EA.hy926 cells, 12 hr; FIG. 3
T1 construct: endogenous in cells; host or cells: EA.hy926 endothelial cells
Procedure: In the present example, BO-2590 and BO-2577 were subject to the test of their activity in suppressing VEGFR-2 by western blotting analysis. Briefly, the endothelial EA.hy926 cells were incubated with BO-2590 or BO-2577 at various concentrations for 12 hr. The primary antibodies, anti-VEGFR-2 and anti-p-VEGFR-2, were used to blot the proteins of total VEGFR-2 and p-VEGFR-2, respectively. Results are illustrated in FIG. 3.

T1 sequence (P35968 20-1356): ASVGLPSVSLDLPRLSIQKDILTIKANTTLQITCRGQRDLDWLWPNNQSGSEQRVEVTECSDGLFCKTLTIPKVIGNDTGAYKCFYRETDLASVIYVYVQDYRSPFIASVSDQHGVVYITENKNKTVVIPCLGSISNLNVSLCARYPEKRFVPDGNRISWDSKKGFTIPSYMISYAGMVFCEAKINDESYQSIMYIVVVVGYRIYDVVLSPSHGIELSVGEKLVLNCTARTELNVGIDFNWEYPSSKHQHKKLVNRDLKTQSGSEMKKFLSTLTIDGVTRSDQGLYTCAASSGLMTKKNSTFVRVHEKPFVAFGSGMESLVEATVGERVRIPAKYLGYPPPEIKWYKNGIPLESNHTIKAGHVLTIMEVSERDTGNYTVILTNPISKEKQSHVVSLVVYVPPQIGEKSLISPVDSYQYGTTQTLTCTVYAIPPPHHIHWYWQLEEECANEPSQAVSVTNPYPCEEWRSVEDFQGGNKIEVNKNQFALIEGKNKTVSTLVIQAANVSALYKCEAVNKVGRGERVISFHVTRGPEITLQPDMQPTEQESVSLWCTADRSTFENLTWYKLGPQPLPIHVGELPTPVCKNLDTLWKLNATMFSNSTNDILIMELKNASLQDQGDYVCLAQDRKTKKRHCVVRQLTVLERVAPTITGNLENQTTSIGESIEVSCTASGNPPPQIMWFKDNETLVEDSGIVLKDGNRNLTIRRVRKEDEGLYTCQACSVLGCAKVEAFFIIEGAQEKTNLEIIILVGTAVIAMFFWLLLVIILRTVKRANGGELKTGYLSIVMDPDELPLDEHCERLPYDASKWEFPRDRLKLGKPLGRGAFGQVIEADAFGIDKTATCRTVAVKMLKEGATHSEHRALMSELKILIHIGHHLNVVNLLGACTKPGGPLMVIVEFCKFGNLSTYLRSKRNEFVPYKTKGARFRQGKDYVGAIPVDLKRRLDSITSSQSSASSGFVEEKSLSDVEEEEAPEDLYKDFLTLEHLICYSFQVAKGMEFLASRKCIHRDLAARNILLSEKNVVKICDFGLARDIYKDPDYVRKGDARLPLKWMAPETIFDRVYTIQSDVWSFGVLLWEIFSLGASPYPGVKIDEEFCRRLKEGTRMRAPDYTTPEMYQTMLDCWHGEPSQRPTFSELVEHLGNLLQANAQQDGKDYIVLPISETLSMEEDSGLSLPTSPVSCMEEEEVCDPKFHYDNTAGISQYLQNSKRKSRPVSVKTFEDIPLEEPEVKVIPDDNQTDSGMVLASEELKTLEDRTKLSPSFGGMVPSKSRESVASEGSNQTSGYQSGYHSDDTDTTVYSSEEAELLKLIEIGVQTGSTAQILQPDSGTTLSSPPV

SMILES: Clc1ccc(Nc2nnc(Cc3ccncc3)c3ccccc23)cc1 [vatalanib]
- tube formation (EA.hy926 cells): suppressed tube formation, but at much higher concentrations
- blood vessel in tumors (anti-CD31 staining) (CD31): significantly reduced blood vessel
- CD31 marker intensity compared to control (CD31): 4%
- γ-H2AX in tumors (γ-H2AX): much less level
- γ-H2AX signals, quantitative analysis (γ-H2AX): moderate level of γ-H2AX

SMILES: N.N.[Cl][Pt][Cl] [Cisplatin, reference compound]
- IC50 [1]: 16.5 ± 0.9 µM
- IC50 (colon cancer HCT-116): 9.17 ± 0.67 µM
- IC50 [2]: 5.11 ± 0.22 µM
- IC50 Paca SI (pancreatic cancer PacaS1): 27.04 ± 0.98 µM
- IC50 [3]: 8.88 ± 1.86 µM
- resistance factor (IC50 CEM/VBL vs IC50 of the parent cell line) [3]: 0.54 ×
- IC50 ([4]; Table 2): 0.73 ± 0.07 µM
- IC50 ([4]; Table 3): 1.75 ± 0.71 µM
- IC50 (H1417): 40.8 ± 5.97 µM
- IC50 (H146): 10.2 ± 2.99 µM
- IC50 (H211): 0.78 ± 0.46 µM
- IC50 (H82): 1.75 ± 0.39 µM
- DNA damage (comet tail) (H526 cells): inducing DNA breaks in a dose dependent manner
- tumor size [5]: slowly increased in size
- deleterious effects on the bodyweight of the test animals ([6]; micelle formulation, FIG. 12, panel B): none
- body weight ([6]; BO-2590L 10 mg/kg for consecutive 9 days, cisplatin 4 mg/Kg, FIG. 11, panel B): severe body weight lost
- blood vessel in tumors (anti-CD31 staining) (CD31): significantly reduced blood vessel
- CD31 marker intensity compared to control (CD31): 19%
- γ-H2AX in tumors (γ-H2AX): remarkably increased in γ-H2AX
- γ-H2AX signals, quantitative analysis (γ-H2AX): time-dependently increased in γ-H2AX signals

SMILES: CCc1c(CO)c(CO)c2c3ccccc3c(N3CCOCC3)nn12 [BO-2577, (3-Ethyl-6-morpholinopyrrolo[2,1-a]phthalazine-1,2-diyl)-dimethanol]
- IC50 ([1]; Homo sapiens, CCRF-CEM): 3.04 ± 0.38 µM
- IC50 (colon cancer HCT-116; Homo sapiens, HCT-116): 11.5 ± 1.66 µM
- IC50 ([2]; Homo sapiens, NCI-H460): 18.57 ± 0.18 µM
- IC50 Paca SI (pancreatic cancer PacaS1): 13.02 ± 0.93 µM
- IC50 ([3]; Homo sapiens, CCRF-CEM): 2.55 ± 0.12 µM
- resistance factor (IC50 CEM/VBL vs IC50 of the parent cell line) [3]: 0.84 ×
- IC50 ([4]; Homo sapiens, NCI-H526, Table 2): 0.75 ± 0.12 µM
- formation of DNA interstrand crosslinks (pEGFP-N1 plasmid DNA): induced DNA interstrand crosslinks
- p-VEGFR-2 protein levels (VEGFR-2): marked suppression in p-VEGFR-2 protein levels
- total protein levels of VEGFR-2 (VEGFR-2): did not significantly change the total protein levels of VEGFR-2
- melting point: 180 to 182 °C

From patent publication US11066412B2, “Substituted pyrrolo[2,1-a]phthalazines and benzo[g]pyrrolo[2,1-a]phthalazines for the treatment of cancer” (Academia Sinica, priority 2017, dated 2021)
